Measured values as given in patent US6946480B2, “Glutaminyl based DPIV inhibitors” (priority 2002, dated 2005).
Entries after “also recorded” stand apart in the source; their conditions may differ.

What was measured:
[1] = Plasma stability (half-life of inhibitory potency in human plasma); type: in vitro ADME
Experimental: In order to investigate the stability of glutaminyl pyrrolidine or glutaminyl thiazolidine in human plasma, the activity of DPIV in plasma was determined at a defined time. The average DPIV activity in human plasma was determined as 43.69 U/ml. In the working solution, the plasma was diluted in 0.9% NaCl to fix the DPIV activity level at 25 U/ml.
Plasma and glutaminyl pyrrolidine or glutaminyl thiazolidine in different concentrations (5*10^−5, 2.5*10^−5, 1.25*10^−5M in plasma) were incubated at 37° C. At defined time points samples were taken using a pipette roboter (Gilson 215, Liquid handler, Gilson) and transferred in a microtiter plate containing 5*10^−5M glycylprolylaminomethylcoumarine in 0.9% NaCl+015% Brij per well. After 6 min the reaction was stopped by addition of isoleucylthiazolidine (5*10^−5M in 0.9% NaCl solution).
Fluorescence measurement was performed against 0.9% NaCl in plasma (reference standard) using a plate reader (HTS7000plus, Applied Biosystems, Weiterstadt, Germany). The half-life of the inhibitory potency of glutaminyl pyrrolidine or glutaminyl thiazolidine was calculated by plotting the enzyme activity versus reaction time.

[2] = In vivo inactivation (degradation) after oral administration to Wistar rats, LC/MS; conditions: LC/MS of plasma
Experimental: Glutaminyl thiazolidine was administered to Wistar rats orally as described in example 9.
After application of placebo or glutaminyl thiazolidine, arterial blood samples were taken at 2.5, 5, 7.5, 10, 15, 20, 40, 60 and 120 min from the carotid catheter of the conscious unrestrained rats to determine the formation of degradation products of glutaminyl thiazolidine.
For analysis, simple solid phase extraction procedure on C18 cartridges was used to isolate the compounds of interest from the plasma. The extracts were analysed using reversed-phase liquid chromatography on Lichrospher 60 RP Select B column hyphenated with tandem mass spectrometry operating in the APCl positive mode. An internal standard method was used for quantification.

[3] = listed as Glutaminyl thiazolidine

NC(=O)CCC(N)C(=O)N1CCSC1 (stereo not drawn) [glutaminyl thiazolidine]
half-life of the inhibitory potency in human plasma ([1]; 37° C., 5*10^−5, 2.5*10^−5, 1.25*10^−5M): no half-time could be determined
stability in human plasma ([1]; over 22 hours): stable in human plasma over 22 hours
degradation in vivo [2]: a degradation of the compound was found
degradation product found in vivo [2]: pyroglutaminyl thiazolidine; also recorded: pyroglutamyl thiazolidine
degradation in vivo [2, 3]: degraded
degradation product found in vivo [2, 3]: pyroglutaminyl thiazolidine
